Here are results for 2 molecules from article PMC12856912, “Structure-Guided Semisynthesis of Blasticidin S–Amicetin Chimeras as Selective Ribosome Inhibitors” (Journal of the American Chemical Society, 2026).

One may read the MIC as the smallest concentration in the dilution series that meets the test's criterion for growth inhibition.

Test [1] concerns Methicillin resistant S. aureus (MRSA) USA300. The experiment in a line: Antibacterial MIC assay, serial dilution. Format: cell-based, Staphylococcus aureus. As to conditions: for Selectivity index (CC50/MIC) MRSA USA300: CC50 Vero cells / MIC; for MIC: Staphylococcus aureus, read-out: MIC Methicillin resistant S. aureus (MRSA) USA300.
The next test relates to MRSA USA-300. In kind it is cell-based, Staphylococcus aureus. As to conditions: for log reduction in time-kill assay: after 24 h. On the procedure:
MRSA USA-300 was grown overnight in cation- adjusted Muell er-Hinton broth (CAMHB), then subcultured into fresh CAMHB and incubated aerobi cally at 37°C until reaching the logarithmic phase, corresponding to an optical density (OD₆₀₀) of 0.2. The bacterial cultures were further diluted to adjust to a final concentration of 5 × 10⁵ CFU/mL in CAMHB. P3, P5, vancomycin and linezolid, were added at concentrations of 5× and 10× MIC. A DMSO-treated […]
(§1) culture serv ed as an untreated control. The cultures were aerobically maintai ned at 37°C in shaking incubator. At specifi c sampling times, aliquots were collected, resuspended in phosphate-buffered saline (PBS) and distributed to three replicates on tryptic soy agar (TSA). After a 24-hour incubation period at 37°C, the number of colony- forming units (CFUs) was evaluated.
F i g u re S 1. Time kill results against MRSA USA 300 at 5X and 10X MIC. Compound P3 ( 38) is shown as red squares, compound P5( 40) is shown as green tri angles. Vancomycin (inverted purple triangle) is used as a b act ericidal control and linezolid (orange diamond) as a bacteriostatic control with DMSO (blue circles ) as a neg ative control. […]

For test [2], the system named is Methicillin resistant Staphylococcus epidermidis (MRSE) ATCC 35984 NRS101. The test can be described thus: Antibacterial MIC assay, serial dilution. Particulars: for Selectivity index (CC50/MIC) MRSE 35984: CC50 Vero cells / MIC; for MIC: Staphylococcus epidermidis, read-out: MIC Methicillin resistant Staphylococcus epidermidis (MRSE) ATCC 35984 NRS101. Format: cell-based.

Another test concerns MRSA NRS384 (USA300). The test can be described thus: Multi-step resistance selection (serial passage). As to conditions: 15 days of serial passaging; resistance = 4-fold shift in MIC. Format: cell-based, Staphylococcus aureus. On the procedure:
as §1
F i g u re S 1. Time kill results against MRSA USA 300 at 5X and 10X MIC. Compound P3 ( 38) is shown as red squares, compound P5( 40) is shown as green tri angles. Vancomycin (inverted purple triangle) is used as a b act ericidal control and linezolid (orange diamond) as a bacteriostatic control with DMSO (blue circles ) as a neg ative control.
Multi-step resistance selection
To assess the ability of M R S A NRS384 (USA300) to develop resistance to P -NM and P-AM, a multi- step serial passage experiment was used, as described previously.4-6 MRSA strain was serially passaged with sub inhibitory concentrations of compounds and control drugs (Rifampicin and linezolid) in 1 5passages over a period of two weeks. Resistance was defined as a 4 -fold shift […]
F i g u re S 2.Multi -step resistance selection for blastimidine P3 ( 38) and blastimidine P5 (40) , rifampicin, and linezolid evaluated against methicillin -resistant S. aureus (MRSA) NRS384 (USA300) for 15days. […]

Test [3] concerns Escherichia coli BAA-2452. The experiment in a line: Antibacterial MIC assay, serial dilution. Format: cell-based. As to conditions: BAA2452, read-out: MIC Escherichia coli BAA-2452.
Another test concerns MRSA ATCC 43300. The experiment in a line: Antibacterial MIC assay, serial dilution. In kind it is cell-based, Staphylococcus aureus. Particulars: for Selectivity index (CC50/MIC) MRSA 43300: CC50 Vero cells / MIC; for MIC: Staphylococcus aureus, read-out: MIC MRSA ATCC 43300. An outline of the steps:
(§2)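 Overnight cultures were subcultured in CAMHB to OD600 ~0.5, then diluted to OD600 0.004 and added to serially diluted compound (final 128–1 μg/mL). After incubation at 37 °C for 16–18 h, or 24 h for VRE, growth was read at OD600 and MIC taken as >90% inhibition.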

A further test deals with S. aureus ATCC 6538P. The test can be described thus: Antibacterial MIC assay, serial dilution. Particulars: for Selectivity index (CC50/MIC) S. aureus 6538P: CC50 Vero cells / MIC; for MIC: Staphylococcus aureus, ATCC 6538P / ATCC 6539P, read-out: MIC S. aureus ATCC 6539P. Format: cell-based, Staphylococcus aureus. An outline of the steps:
as §2

A further test deals with S. aureus ΔNorA. The experiment in a line: Antibacterial MIC assay, serial dilution. Format: cell-based, Staphylococcus aureus. As to conditions: for Selectivity index (CC50/MIC) S. aureus ΔNorA: CC50 Vero cells / MIC; for MIC: Staphylococcus aureus, read-out: MIC S. aureus ∆NorA. Put shortly:
as §2

Converted amounts (≈) assume the structure as drawn. Read-outs that look alike come from different tables or passages of the source.

With `CNc1ccc(C(=O)Nc2ccn([C@H]3C=C[C@H](NC(=O)C[C@@H](N)CCN(C)C(=N)N)[C@@H](C(=O)NCCc4ccccc4)O3)c(=O)n2)cc1` [Blastimidine P3], the “Selectivity index (CC50/MIC) MRSA USA300” value in test [1] was >8.0. Further, the MIC in test [1] was 32 µg/mL (≈ 48.6 µM); in test [2] it was 8 µg/mL (≈ 12.1 µM); in test [3] it was 64 µg/mL (≈ 97.2 µM); in the test with MRSA ATCC 43300, 64 to 128 µg/mL (≈ 97.2 to 194 µM); with S. aureus ATCC 6538P, 16 to 32 µg/mL (≈ 24.3 to 48.6 µM); with S. aureus ΔNorA, 4 to 8 µg/mL (≈ 6.07 to 12.1 µM). Besides, in the test with MRSA USA-300 (5× MIC and 10× MIC), the “bacteriostatic or bactericidal effect in time-kill assay” value was “bacteriostatic activity”. In addition, the “log reduction in time-kill assay” value is recorded as 2.5 log with MRSA USA-300 (5× MIC) and 2.7 log with MRSA USA-300 (10× MIC). Also, in test [2], the “Selectivity index (CC50/MIC) MRSE 35984” value is listed as >32. Moreover, the “resistance development on serial passaging” value in the test on MRSA NRS384 (USA300) is reported as “did not produce a resistant phenotype”. Moreover, the “Selectivity index (CC50/MIC) MRSA 43300” value in the test on MRSA ATCC 43300 was >3.0. In addition, the “Selectivity index (CC50/MIC) S. aureus 6538P” value with S. aureus ATCC 6538P was >12. Besides, in the test with S. aureus ΔNorA, the “Selectivity index (CC50/MIC) S. aureus ΔNorA” value is >48.

Consider `CN(CC[C@H](N)CC(=O)N[C@H]1C=C[C@H](n2ccc(NC(=O)c3ccc(NC(=O)[C@@](C)(N)CO)cc3)nc2=O)O[C@@H]1C(=O)NCCc1ccccc1)C(=N)N` [Blastimidine P5], for which, in test [1], the “Selectivity index (CC50/MIC) MRSA USA300” value is >16 and the MIC is 16 µg/mL (≈ 21.5 µM). Besides, in the test on MRSA USA-300 (5× MIC and 10× MIC), the “bacteriostatic or bactericidal effect in time-kill assay” value was “bactericidal activity”. Further, the “clearance in time-kill assay” value in the test with MRSA USA-300 (5× MIC and 10× MIC, within 24 h) is reported as “complete clearance”. Besides, in test [2], the “Selectivity index (CC50/MIC) MRSE 35984” value is listed as >16 and the MIC amounted to 16 µg/mL (≈ 21.5 µM). For the same molecule, in the test on MRSA NRS384 (USA300), the “resistance development on serial passaging” value is recorded as “did not produce a resistant phenotype”. The MIC in test [3] is 128 µg/mL (≈ 172 µM). In addition, in the test on MRSA ATCC 43300, the “Selectivity index (CC50/MIC) MRSA 43300” value is >8.0 and the MIC was found to be 32 µg/mL (≈ 42.9 µM). Moreover, in the test on S. aureus ATCC 6538P, the “Selectivity index (CC50/MIC) S. aureus 6538P” value is >16 and the MIC was 16 µg/mL (≈ 21.5 µM). In addition, in the test with S. aureus ΔNorA, the “Selectivity index (CC50/MIC) S. aureus ΔNorA” value is >16 and the MIC came out at 16 µg/mL (≈ 21.5 µM).
